# Test results reported in patent US20230295197A1, “STAT5 and STAT6 Degraders and Uses Thereof” (REGENTS OF THE UNIVERSITY OF MICHICAN, priority 2022, published 2023).
# Target: T1, STAT6 (Homo sapiens, UniProt P42226)
# T1 construct: endogenous in cells; host or cells: MOLM-16, KU-812, SKNO1, MB231, L1236
# T1 sequence (P42226 1-847): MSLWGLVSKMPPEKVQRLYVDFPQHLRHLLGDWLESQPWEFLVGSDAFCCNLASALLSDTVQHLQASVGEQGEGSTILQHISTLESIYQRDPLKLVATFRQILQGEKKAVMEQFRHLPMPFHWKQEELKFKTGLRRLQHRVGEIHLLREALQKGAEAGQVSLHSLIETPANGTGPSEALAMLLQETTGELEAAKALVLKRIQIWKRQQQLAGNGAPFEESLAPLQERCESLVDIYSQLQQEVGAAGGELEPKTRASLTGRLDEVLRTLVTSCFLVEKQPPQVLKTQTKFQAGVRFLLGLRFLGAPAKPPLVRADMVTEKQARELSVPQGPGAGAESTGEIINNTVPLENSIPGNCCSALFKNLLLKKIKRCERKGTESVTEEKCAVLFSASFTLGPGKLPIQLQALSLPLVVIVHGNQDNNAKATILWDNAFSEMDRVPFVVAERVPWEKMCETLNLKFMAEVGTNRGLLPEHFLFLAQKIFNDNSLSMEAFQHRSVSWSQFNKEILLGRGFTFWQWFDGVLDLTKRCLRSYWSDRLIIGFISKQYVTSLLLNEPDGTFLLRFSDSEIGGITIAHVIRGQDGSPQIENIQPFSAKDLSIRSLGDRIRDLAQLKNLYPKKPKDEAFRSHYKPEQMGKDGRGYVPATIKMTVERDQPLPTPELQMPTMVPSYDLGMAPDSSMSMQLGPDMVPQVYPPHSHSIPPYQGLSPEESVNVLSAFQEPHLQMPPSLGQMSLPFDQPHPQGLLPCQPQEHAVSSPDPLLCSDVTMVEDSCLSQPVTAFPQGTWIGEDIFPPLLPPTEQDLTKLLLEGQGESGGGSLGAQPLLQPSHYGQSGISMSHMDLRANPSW
# Assay: Immunoblotting (Western blot) analysis of STAT6 degradation efficiency of degraders in treated cells
# Assay type: cell-based
# Details: L1236 cells, read-out: DC50 S6 L1236
# Procedure, shortened: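 Read-out: fluorescent IRDye 680RD/800CW secondaries imaged on an infrared scanner, with band intensities quantified by densitometry and GAPDH serving as loading control. Samples were RIPA lysates, BCA-normalised, from ~1 million treated cells.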
row,Structure (SMILES),DC50
1,"Cc1ncsc1-c1ccc(CNC(=O)[C@@H]2C[C@@H](O)CN2C(=O)[C@@H](NC(=O)CCCCNC(=O)CO[C@@H]2C[C@@H](C(=O)N(C)c3ccc(Br)cc3)N(C(=O)[C@@H](NC(=O)c3cc4cc(C(F)(F)P(=O)(O)O)ccc4s3)C(C)(C)C)C2)C(C)(C)C)cc1 [Compound 416, ((2-(((S)-1-((2S,4R)-2-((4-bromophenyl)(methyl)carbamoyl)-4-(2-((5-(((S)-1-((2S,4R)-4-hydroxy-2-((4-(4-methylthiazol-5-yl)benzyl)carbamoyl)pyrrolidin-1-yl)-3,3-dimethyl-1-oxobutan-2-yl)amino)-5-oxopentyl)amino)-2-oxoethoxy)pyrrolidin-1-yl)-3,3-dimethyl-1-oxobutan-2-yl)carbamoyl)benzo[b]thiophen-5-yl)difluoromethyl)phosphonic acid]",> 10 µM
2,"Cc1ncsc1-c1ccc([C@H](C)NC(=O)[C@@H]2C[C@@H](O)CN2C(=O)[C@@H](NC(=O)CCCCCCCCNC(=O)CC(=O)N2CCN(C(=O)[C@@H](NC(=O)c3cc4cc(C(F)(F)P(=O)(O)O)ccc4s3)C(C)(C)C)[C@H](C(=O)N3CCO[C@H](c4ccccc4)C3)C2)C(C)(C)C)cc1 [Compound 450, (difluoro(2-(((S)-1-((S)-4-(3-((9-(((S)-1-((2S,4R)-4-hydroxy-2-(((S)-1-(4-(4-methylthiazol-5-yl)phenyl)ethyl)carbamoyl)pyrrolidin-1-yl)-3,3-dimethyl-1-oxobutan-2-yl)amino)-9-oxononyl)amino)-3-oxopropanoyl)-2-((R)-2-phenylmorpholine-4-carbonyl)piperazin-1-yl)-3,3-dimethyl-1-oxobutan-2-yl)carbamoyl)benzo[b]thiophen-5-yl)methyl)phosphonic acid]",> 10 µM

# Same assay, conditions: MB231 cells, read-out: DC50 S6 MB231
row,Structure (SMILES),DC50
1,"Cc1ncsc1-c1ccc(CNC(=O)[C@@H]2C[C@@H](O)CN2C(=O)[C@@H](NC(=O)CCCCNC(=O)CO[C@@H]2C[C@@H](C(=O)N(C)c3ccc(Br)cc3)N(C(=O)[C@@H](NC(=O)c3cc4cc(C(F)(F)P(=O)(O)O)ccc4s3)C(C)(C)C)C2)C(C)(C)C)cc1 [Compound 416, ((2-(((S)-1-((2S,4R)-2-((4-bromophenyl)(methyl)carbamoyl)-4-(2-((5-(((S)-1-((2S,4R)-4-hydroxy-2-((4-(4-methylthiazol-5-yl)benzyl)carbamoyl)pyrrolidin-1-yl)-3,3-dimethyl-1-oxobutan-2-yl)amino)-5-oxopentyl)amino)-2-oxoethoxy)pyrrolidin-1-yl)-3,3-dimethyl-1-oxobutan-2-yl)carbamoyl)benzo[b]thiophen-5-yl)difluoromethyl)phosphonic acid]",> 10 µM

# Same assay, conditions: MOLM-16 cells, class symbols, read-out: DC50 S6 MOLM-16
row,Structure (SMILES),DC50
1,"CC(C)(C)[C@H](NC(=O)c1cc2cc(C(F)(F)P(=O)(O)O)ccc2s1)C(=O)N1CCN(C(=O)CC(=O)NCCC#Cc2cccc3c2C(=O)N(C2CCC(=O)NC2=O)C3=O)C[C@H]1C(=O)N1CCO[C@H](c2ccccc2)C1 (stereo partly drawn) [Compound 509, ((2-(((2S)-1-((2S)-4-(3-((4-(2-(2,6-dioxopiperidin-3-yl)-1,3-dioxoisoindolin-4-yl)but-3-yn-1-yl)amino)-3-oxopropanoyl)-2-((R)-2-phenylmorpholine-4-carbonyl)piperazin-1-yl)-3,3-dimethyl-1-oxobutan-2-yl)carbamoyl)benzo[b]thiophen-5-yl)difluoromethyl)phosphonic acid]",> 10 µM
2,"CC(C)(C)[C@H](NC(=O)c1cc2cc(C(F)(F)P(=O)(O)O)ccc2s1)C(=O)N1C[C@@H](OCC(=O)NCCCCCCCCC#Cc2ccc3c(c2)C(=O)N(C2CCC(=O)NC2=O)C3=O)C[C@H]1C(=O)N1CCO[C@H](c2ccccc2)C1 (stereo partly drawn) [Compound 490, ((2-(((2S)-1-((2S,4S)-4-(2-((10-(2-(2,6-dioxopiperidin-3-yl)-1,3-dioxoisoindolin-5-yl)dec-9-yn-1-yl)amino)-2-oxoethoxy)-2-((R)-2-phenylmorpholine-4-carbonyl)pyrrolidin-1-yl)-3,3-dimethyl-1-oxobutan-2-yl)carbamoyl)benzo[b]thiophen-5-yl)difluoromethyl)phosphonic acid]",> 10 µM
3,"CC(C)(C)c1ccc(C[C@H](NC(=O)c2cc3cc(C(F)(F)P(=O)(O)O)ccc3s2)C(=O)N2C[C@@H](OCCCCCC(=O)N3Cc4cc5c(cc4C3)C(=O)N(C3CCC(=O)NC3=O)C5)C[C@H]2C(=O)N2CCO[C@H](c3ccccc3)C2)cc1 (stereo partly drawn) [Compound 591, ((2-(((2S)-3-(4-(tert-butyl)phenyl)-1-((2S,4S)-4-((6-(6-(2,6-dioxopiperidin-3-yl)-5-oxo-3,5,6,7-tetrahydropyrrolo[3,4-f]isoindol-2(1H)-yl)-6-oxohexyl)oxy)-2-((R)-2-phenylmorpholine-4-carbonyl)pyrrolidin-1-yl)-1-oxopropan-2-yl)carbamoyl)benzo[b]thiophen-5-yl)difluoromethyl)phosphonic acid]",> 10 µM
4,"CC(C)(C)[C@H](NC(=O)c1cc2cc(C(F)(F)P(=O)(O)O)ccc2s1)C(=O)N1CCN(C(=O)CC(=O)NCCCCCCCCC#Cc2ccc3c(c2)C(=O)N(C2CCC(=O)NC2=O)C3=O)C[C@H]1C(=O)N1CCO[C@H](c2ccccc2)C1 (stereo partly drawn) [Compound 518, ((2-(((2S)-1-((2S)-4-(3-((10-(2-(2,6-dioxopiperidin-3-yl)-1,3-dioxoisoindolin-5-yl)dec-9-yn-1-yl)amino)-3-oxopropanoyl)-2-((R)-2-phenylmorpholine-4-carbonyl)piperazin-1-yl)-3,3-dimethyl-1-oxobutan-2-yl)carbamoyl)benzo[b]thiophen-5-yl)difluoromethyl)phosphonic acid]",> 10 µM
5,"CC(C)(C)[C@H](NC(=O)c1cc2cc(C(F)(F)P(=O)(O)O)ccc2s1)C(=O)N1CCN(C(=O)CC(=O)NCCCCCC#Cc2ccc3c(c2)C(=O)N(C2CCC(=O)NC2=O)C3=O)C[C@H]1C(=O)N1CCO[C@H](c2ccccc2)C1 (stereo partly drawn) [Compound 516, ((2-(((2S)-1-((2S)-4-(3-((7-(2-(2,6-dioxopiperidin-3-yl)-1,3-dioxoisoindolin-5-yl)hept-6-yn-1-yl)amino)-3-oxopropanoyl)-2-((R)-2-phenylmorpholine-4-carbonyl)piperazin-1-yl)-3,3-dimethyl-1-oxobutan-2-yl)carbamoyl)benzo[b]thiophen-5-yl)difluoromethyl)phosphonic acid]",> 10 µM
6,"CC(C)(C)[C@H](NC(=O)c1cc2cc(C(F)(F)P(=O)(O)O)ccc2s1)C(=O)N1Cc2cc(OCC(=O)NCCCCCCCCC#Cc3ccc4c(c3)C(=O)N(C3CCC(=O)NC3=O)C4=O)ccc2C[C@H]1C(=O)N1CCC[C@H](c2ccccc2)C1 (stereo partly drawn) [Compound 560, ((2-(((2S)-1-((3S)-7-(2-((10-(2-(2,6-dioxopiperidin-3-yl)-1,3-dioxoisoindolin-5-yl)dec-9-yn-1-yl)amino)-2-oxoethoxy)-3-((R)-3-phenylpiperidine-1-carbonyl)-3,4-dihydroisoquinolin-2(1H)-yl)-3,3-dimethyl-1-oxobutan-2-yl)carbamoyl)benzo[b]thiophen-5-yl)difluoromethyl)phosphonic acid]",> 10 µM
7,"CC(C)(C)[C@H](NC(=O)c1cc2cc(C(F)(F)P(=O)(O)O)ccc2s1)C(=O)N1CCN(C(=O)CC(=O)NCCCCCCCCC#Cc2cccc3c2C(=O)N(C2CCC(=O)NC2=O)C3=O)C[C@H]1C(=O)N1CCC[C@H](c2ccccc2)C1 (stereo partly drawn) [Compound 531, ((2-(((2S)-1-((2S)-4-(3-((10-(2-(2,6-dioxopiperidin-3-yl)-1,3-dioxoisoindolin-4-yl)dec-9-yn-1-yl)amino)-3-oxopropanoyl)-2-((R)-3-phenylpiperidine-1-carbonyl)piperazin-1-yl)-3,3-dimethyl-1-oxobutan-2-yl)carbamoyl)benzo[b]thiophen-5-yl)difluoromethyl)phosphonic acid]",> 10 µM
8,"CC(C)(C)[C@H](NC(=O)c1cc2cc(C(F)(F)P(=O)(O)O)ccc2s1)C(=O)N1C[C@@H](OCC(=O)NCCCCCC#Cc2ccc3c(c2)C(=O)N(C2CCC(=O)NC2=O)C3=O)C[C@H]1C(=O)N1CCO[C@H](c2ccccc2)C1 (stereo partly drawn) [Compound 488, ((2-(((2S)-1-((2S,4S)-4-(2-((7-(2-(2,6-dioxopiperidin-3-yl)-1,3-dioxoisoindolin-5-yl)hept-6-yn-1-yl)amino)-2-oxoethoxy)-2-((R)-2-phenylmorpholine-4-carbonyl)pyrrolidin-1-yl)-3,3-dimethyl-1-oxobutan-2-yl)carbamoyl)benzo[b]thiophen-5-yl)difluoromethyl)phosphonic acid]",> 10 µM
9,"Cc1ncsc1-c1ccc([C@H](C)NC(=O)[C@@H]2C[C@@H](O)CN2C(=O)[C@@H](NC(=O)CCCCCCCCNC(=O)CC(=O)N2CCN(C(=O)[C@@H](NC(=O)c3cc4cc(C(F)(F)P(=O)(O)O)ccc4s3)C(C)(C)C)[C@H](C(=O)N3CCO[C@H](c4ccccc4)C3)C2)C(C)(C)C)cc1 [Compound 450, (difluoro(2-(((S)-1-((S)-4-(3-((9-(((S)-1-((2S,4R)-4-hydroxy-2-(((S)-1-(4-(4-methylthiazol-5-yl)phenyl)ethyl)carbamoyl)pyrrolidin-1-yl)-3,3-dimethyl-1-oxobutan-2-yl)amino)-9-oxononyl)amino)-3-oxopropanoyl)-2-((R)-2-phenylmorpholine-4-carbonyl)piperazin-1-yl)-3,3-dimethyl-1-oxobutan-2-yl)carbamoyl)benzo[b]thiophen-5-yl)methyl)phosphonic acid]",> 10 µM
10,"CC(C)(C)[C@H](NC(=O)c1cc2cc(C(F)(F)P(=O)(O)O)ccc2s1)C(=O)N1Cc2cc(OCC(=O)NCCCCCCCCCC#Cc3ccc4c(c3)C(=O)N(C3CCC(=O)NC3=O)C4=O)ccc2C[C@H]1C(=O)N1CCC[C@H](c2ccccc2)C1 (stereo partly drawn) [Compound 562, ((2-(((2S)-1-((3S)-7-(2-((11-(2-(2,6-dioxopiperidin-3-yl)-1,3-dioxoisoindolin-5-yl)undec-10-yn-1-yl)amino)-2-oxoethoxy)-3-((R)-3-phenylpiperidine-1-carbonyl)-3,4-dihydroisoquinolin-2(1H)-yl)-3,3-dimethyl-1-oxobutan-2-yl)carbamoyl)benzo[b]thiophen-5-yl)difluoromethyl)phosphonic acid]",> 10 µM
